Results published in BindingDB's records for PubMed 37713805 (University of Michigan).

Target: Mitogen-activated protein kinase kinase kinase 12 (Homo sapiens) (UniProt Q12852)
Assay: Binding affinity to DLK (unknown origin) assessed as inhibition constant

Mitogen-activated protein kinase kinase kinase 12 (Homo sapiens), sequence (Q12852 whole entry, looked up): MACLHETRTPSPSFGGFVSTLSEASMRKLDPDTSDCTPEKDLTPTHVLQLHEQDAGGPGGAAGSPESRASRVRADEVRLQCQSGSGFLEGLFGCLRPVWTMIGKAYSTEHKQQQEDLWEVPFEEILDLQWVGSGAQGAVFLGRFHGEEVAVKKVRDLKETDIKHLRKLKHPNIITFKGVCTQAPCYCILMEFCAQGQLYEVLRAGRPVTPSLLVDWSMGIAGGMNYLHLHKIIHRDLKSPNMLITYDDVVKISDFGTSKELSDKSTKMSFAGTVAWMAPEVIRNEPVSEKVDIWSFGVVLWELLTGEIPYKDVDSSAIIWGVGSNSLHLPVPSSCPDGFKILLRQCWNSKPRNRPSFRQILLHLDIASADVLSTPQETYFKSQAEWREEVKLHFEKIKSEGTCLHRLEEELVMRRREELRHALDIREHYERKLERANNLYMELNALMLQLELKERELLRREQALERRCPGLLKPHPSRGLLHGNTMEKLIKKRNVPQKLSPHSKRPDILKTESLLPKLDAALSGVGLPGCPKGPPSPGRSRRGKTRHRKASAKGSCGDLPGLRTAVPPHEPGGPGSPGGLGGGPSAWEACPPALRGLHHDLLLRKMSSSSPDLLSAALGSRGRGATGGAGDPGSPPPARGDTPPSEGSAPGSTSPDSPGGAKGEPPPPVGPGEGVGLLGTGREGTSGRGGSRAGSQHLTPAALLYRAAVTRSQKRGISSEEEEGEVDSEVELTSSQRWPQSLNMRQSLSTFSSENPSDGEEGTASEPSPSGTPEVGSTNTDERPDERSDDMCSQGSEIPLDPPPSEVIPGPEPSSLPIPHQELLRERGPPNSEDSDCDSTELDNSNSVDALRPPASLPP

Q: How did the Ki turn out when `CC(=O)N1CCC(c2cc(Nc3cc(C#N)ccn3)nc(N3CCC(F)(F)C3)c2)CC1` was run?
A: 25 nM
